Experiments:
[1] = tested on: tumors from KRAS.G12C, EML4-ALK, and TH21 lung cancer patients; assay: GENEVA pools of PDX models, relative survival by genotype; type: in vivo, human; settings: PDX GENEVA pool
Description: Higher confidence metrics are noted in the dotted line, or Noise Corrected Algorithm results.
GENEVA pools of PDX models were created for a long term drug treatment assay. Tumors were implanted in vivo and in organoids, and tumors from KRAS.G12C, EML4-ALK, and TH21 lung cancer patients were drugged in GENEVA pools. Significant drug sensitivity was found in EML4-ALK patient greater than sensitivity of KRAS.G12C mutant tumors indicating EML4-ALK patient tumors would respond to a KRAS.G12C inhibitor (FIG. 9B).

[2] = tested on: KRAS.G12C cell line H2030; assay: Lipid peroxidation by KRAS inhibitors in KRAS.G12C line; type: cell-based, human
Procedure: FIG. 7B plots gene expression of anti-ferroptotic genes for each cell line in response to increasing ARS1620 dosage.
Using a lipid peroxidation live cell probe, lipid peroxidation—one of the hallmark phenotypes of ferroptosis—was measured in response to ARS-1620 treatment.

lipid peroxidation = assay: Lipid peroxidation live cell probe dose curve and survival kinetics; type: cell-based
Description: FIG. 7B plots gene expression of anti-ferroptotic genes for each cell line in response to increasing ARS1620 dosage. […] Lipid peroxidation and survival kinetics cross over around IC50 in all compounds indicating ARS1620 performs as a ferroptosis inducing agent.
(§1) Among this group of genes were FTH1 and FTL, the two components of the Ferritin Complex, which is responsible for sequestration of labile free iron. Using a lipid peroxidation live cell probe, lipid peroxidation—one of the hallmark phenotypes of ferroptosis—was measured in response to ARS-1620 treatment.

[3] = tested on: KRAS.G12C lines in GENEVA pools; assay: GENEVA pool transcriptome changes in cells surviving drug treatment; type: cell-based, human
Procedure: Long-time course GENEVA pools were created to understand how ARS1620 achieved durable tumor regression in human cells. A seven day drug treatment regimen was conducted and transcriptome changes in surviving cells were analyzed.
For each cell line, single cell datasets were divided into two sub-datasets: vehicle treated and drug treated. Differential expression was calculated between two single-cell datasets using a two-sample t-test. A differential expression score was obtained for each gene from two-sample t-test output. All cell lines were repeated until done and all differential expression scores for genes were saved into aggregated differential expression tables by cell line. Cells were grouped according to their phenotypic sensitivity to the tested compound. For tested compounds, the genetic driver of the compound sensitivity was discovered as described previously herein. Using the genetic driver, cell lines were classified by presence or absence of the driver into two categories, sensitive vs non-sensitive. The differential expression matrix was grouped into sensitive and insensitive cell lines. z-scores for genes within each cell line were calculated, genes were grouped by gene sets from biological geneset databases curated from scientific literature, and two sample T-tests with grouped z-scores were performed. First, all differential expression scores were normalized to the same scale by z-score within each cell line. […] Summary statistics from each gene test were saved and the z-score difference was calculated. The biological mechanism of action of the molecule of interest was determined by rank ordering the median z score results from each geneset to determine the relative upregulation or downregulation of genesets in response to the compound.
as §1

[4] = tested on: KRAS.G12C cell lines in a cell pool; assay: GENEVA pool gene set expression after drug, in vitro; type: cell-based, human; settings: post-drug treatment
Description: The GENEVA datasets were compared where GENEVA pools were drugged with the KRAS.G12C inhibitor ARS1620, conducted both in vitro and in vivo. Specifically, the in vitro data were compared against the in vivo data to look for differences and similarities attributable to the context of the model systems used. […] As a validation study, a combination therapy multi-arm in vivo mouse study was designed to test the efficacy of an EMT inhibitor, Galunisertib in combination with ARS1620.
For in vivo and in vitro datasets, we combined the median z score results determined in Example 8 and t-test results, respectively, were combined on a paired geneset by geneset basis. The combined zscore results table from both in vivo and in vitro was then used to calculate an “in vivo Specificity Score” as follows:
For each geneset, “in vivo Specificity Score”=[(in vivo median zscore)−(in vitro median zscore)]/mean([log 10 (in vivo pvalue), log 10 (in vitro pvalue)]

H2030 (KRAS.G12C) cells = assay: Seahorse assay measuring oxygen consumption; type: cell-based, human; settings: 2 h after treatment

C=CC(=O)N1CCN(c2ncnc3c(F)c(-c4c(O)cccc4F)c(Cl)cc23)CC1 [ARS1620]
relative survival of genotype under treatment or vehicle [1]: EML4-ALK as the most drug sensitive tumor type | lipid peroxidation [2]: increased lipid peroxidation | lipid peroxidation dose response (lipid peroxidation; 48 h, fluorescent lipid peroxidation sensor): induced lipid peroxidation in a dose dependent fashion | cross-over of survival and normalized lipid peroxidation curves (lipid peroxidation; dose curves): crossed over around the IC50 survival value | percentage of mitochondrial reads in surviving cell subpopulations ([3]; after drug treatment, within each cell line of the pool): significantly lower percentage of mitochondrial reads relative to overall reads | expression of anti-ferroptotic genes in surviving cells ([3]; long-term treatment, across KRAS.G12C lines): Consistently upregulated genes across cell lines were found to be involved in an anti-ferroptotic response mechanism | expression of mitochondrially encoded genes in surviving cells ([3]; seven day drug treatment regimen): Mitochondrially encoded genes were downregulated | endothelial-mesenchymal transition hallmark gene expression signature [4]: showed no difference in vitro | oxygen consumption / mitochondrial respiration (H2030 (KRAS.G12C) cells): significant difference in functional oxygen consumption

Reference: US20250003953A1, “Methods and Model Systems for Assessing Therapeutic Properties of Candidate Agents and Related Computer Readable Media and Systems” (The Regents of the University of California, priority 2021, published 2025)
